From patent US20110280940A1, “Di-Vanilloyl And Tri-Vanilloyl Derivatives For Use In Anti-Cancer Therapy” (priority 2008, published 2011) come the findings set out here.

Molecules are shown by their SMILES.

One experiment addresses pfGSK3 (Plasmodium falciparum, UniProt O77344). Description: Kinase activity assay, pfGSK3. The settings on record: 10 μM, 1% DMSO, 15 μM ATP; residual activity. In kind it is biochemical. Here is the method:
(§1) Buffer A: 10 mM MgCl2, 1 mM EGTA, 1 mM DTT, 25 mM Tris-HCl pH 7.5, 50 μg heparin/ml. Buffer C: 60 mM β-glycerophosphate, 15 mM p-nitrophenylphosphate, 25 mM Mops (pH 7.2), 5 mM EGTA, 15 mM MgCl2, 1 mM DTT, 1 mM sodium vanadate, 1 mM phenyl phosphate.
(§2) Kinase activities were assayed in Buffer A or C, at 30° C., at a final ATP concentration of 15 μM. Blank values were subtracted and activities expressed in % of the maximal activity, i.e. in the absence of inhibitors. Controls were performed with appropriate dilutions of DMSO.

The test system of another experiment is VM48 melanoma cells. Description: MTT colorimetric assay, overall cell growth, VM48. The experiment is classed as cell-based, human. The note with it: Homo sapiens; MTT, 72 hours of incubation; read-out: In Vitro IC50 Growth Inhibitory Values, VM48.
The test system of a further experiment is VM21 melanoma cells. Description: MTT colorimetric assay, overall cell growth, VM21. The experiment is classed as cell-based, human. The note with it: Homo sapiens; MTT, 72 hours of incubation; read-out: In Vitro IC50 Growth Inhibitory Values, VM21. The essentials:
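Growth is measured as remaining living cells relative to untreated controls after 72 h at 37 °C with compound at 10^-8 to 10^-4 M. Readout is MTT formazan absorbance at 570 nm.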
(In general: Tetrazolium assays rely on reduction of a dye to a coloured formazan, in cell work by metabolically active cells.)

A further experiment relates to U373-MG glioma cell line. Briefly: Cellular imaging (quantitative videomicroscopy), global growth ratio, U373. The experiment is classed as cell-based. The settings on record: Homo sapiens, 50 μM, 72 h, read-out: Global Grow Ratio Treated/Ct (GGR T/Ct) determined by Video Quantitative microscopy, U373. The source says:
(§3) As the MTT test is based on the mitochondria functions, we also investigated the effects of the di- and tri-vanilloyl derivatives according to the invention on cell proliferation, migration and morphology by means of a cellular imaging approach (Debeir et al., Cytometry 60:29-40, 2004; Debeir et al., IEEE Trans Med Imaging 24:697-711, 2005) either in the human U373-MG glioma cell line, which is apoptosis-resistant but autophagy-sensitive (Lefranc F et al., Neurosurgery 2008) and in the human A549 non-small-cell-lung cancer cell line, which is apoptosis-resistant and autophagy-resistant (Mijatovic T et al., Neoplasia 2006, May; 8(5):402-12).
(§4) Investigations have also been performed in human normal fibroblasts (WS1 and WI38—see Tables 4 and 5). Cellular imaging relied on the use of computer-assisted phase-contrast microscopy making possible to film the behaviour of living cells in culture dishes for several days.
(§5) Cells were seeded in a 25-cm^2 flask at a low density, treated or not with the vanilloyl-esters invention (at a concentration of 50 μM) and filmed thereafter for a period of 72 h. The experiment was conducted in quadruplicates (in duplicates for DLT-95 compounds).
(§6) The behaviour of the cells, in terms of morphology, growth and death were thus investigated. The effect on the overall growth was measured by counting the number of cells on the first (0 h) and the last image (72 h) of each film. The global growth ratio (GGR) was then deduced by dividing the number of cells on the last image by the number of cells on the first image. The ratio GGRtreated cells/GGRcontrol cells, was further calculated thereby obtaining a value that describes the effect of compounds of the present invention on the overall cell growth. The methodology is fully described and validated in Debeir et al., 2008, Exp Cell Res 314:2985-2998 and Mathieu et al., 2009, J Cell Mol Med, Feb. 20, 2009.
(§7) Illustrative pictures (time=0 h and 72 h) of glioblastoma and normal fibroblast cell line left untreated or treated with poly-vanillic compounds according to the invention (50 μM) are provided in FIG. 1 (U373 glioblastoma) and FIG. 2 (normal fibroblasts). The GGR parameter analyses confirmed the marked impairment of cell growth in both cancer cell lines of the poly-vanillic compounds according to the invention (Table 5).

The target of the next experiment is Erk2 (Rattus norvegicus, UniProt P63086). Description: Kinase activity assay, Erk2. In kind it is biochemical. The note with it: 10 μM, 1% DMSO, 15 μM ATP; residual activity. The method, then: as §1, §2
Erk2, sequence (P63086 whole entry, the tested form may be a part): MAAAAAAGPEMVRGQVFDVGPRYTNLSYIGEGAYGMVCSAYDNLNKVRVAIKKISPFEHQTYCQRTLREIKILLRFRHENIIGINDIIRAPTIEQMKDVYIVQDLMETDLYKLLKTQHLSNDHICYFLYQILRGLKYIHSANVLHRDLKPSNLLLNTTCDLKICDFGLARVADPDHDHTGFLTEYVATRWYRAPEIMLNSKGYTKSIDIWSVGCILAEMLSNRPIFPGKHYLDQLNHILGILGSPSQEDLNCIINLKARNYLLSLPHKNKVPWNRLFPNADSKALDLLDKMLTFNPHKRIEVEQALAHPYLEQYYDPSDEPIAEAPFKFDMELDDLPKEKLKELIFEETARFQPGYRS
Erk2 (rat, recombinant) was assayed as described for CDK1 but using the specific substrate Ets1 (amino acids 1-138) in buffer A.

In another experiment the test system is GSK-3. Briefly: Kinase activity assay, GSK3. The experiment is classed as biochemical, porcine. The note with it: 10 μM, 1% DMSO, 15 μM ATP; residual activity. Here is the method: as §1, §2
GSK-3 (porcine brain, native) was assayed, as described for CDK1 but in Buffer A and using a GSK-3 specific substrate (GS-1: […]pEDEEE) (Seq. ID NO 1) (pS stands for phosphorylated serine) (Primot et al., 2000, Protein Expr. & Purif. 20 (3), 394-404). GS-1 was synthesized by Millegen (Labege, France).

In the next experiment the test system is CK1. Description: Kinase activity assay, CK1. The note with it: 10 μM, 1% DMSO, 15 μM ATP; residual activity. In kind it is biochemical, porcine. The method, then: as §1, §2
CK1 (porcine brain, native) was assayed as described for CDK1 but using the CK1-specific peptide substrate […]pSAYSITA (Seq. ID NO 2) (Reinhardt et al., 2007, Protein Expr. & Purif. 54, 101-109), obtained from Millegen (Labege, France).

Experiment [1] deals with A549 non-small-cell-lung cancer cell line. Briefly: Cellular imaging (quantitative videomicroscopy), global growth ratio, A549. In kind it is cell-based. The settings on record: Homo sapiens, 72 h, read-out: Global Grow Ratio Treated/Ct (GGR T/Ct) determined by Video Quantitative microscopy, A549.
From the text: as §3, §4, §5, §6, §7

A further experiment deals with T1, CDK5/p25 (Homo sapiens, UniProt Q00535).
T1 construct: made in house
T1 sequence (Q00535 whole entry): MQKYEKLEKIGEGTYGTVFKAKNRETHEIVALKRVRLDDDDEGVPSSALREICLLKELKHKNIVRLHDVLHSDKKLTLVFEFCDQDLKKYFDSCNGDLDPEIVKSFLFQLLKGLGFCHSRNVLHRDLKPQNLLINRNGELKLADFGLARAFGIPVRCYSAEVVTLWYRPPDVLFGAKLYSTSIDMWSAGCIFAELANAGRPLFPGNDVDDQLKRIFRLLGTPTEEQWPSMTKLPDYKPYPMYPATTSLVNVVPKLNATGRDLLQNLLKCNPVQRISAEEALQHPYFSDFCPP
T1 sequence (Q15078 99-307 partner limits assumed): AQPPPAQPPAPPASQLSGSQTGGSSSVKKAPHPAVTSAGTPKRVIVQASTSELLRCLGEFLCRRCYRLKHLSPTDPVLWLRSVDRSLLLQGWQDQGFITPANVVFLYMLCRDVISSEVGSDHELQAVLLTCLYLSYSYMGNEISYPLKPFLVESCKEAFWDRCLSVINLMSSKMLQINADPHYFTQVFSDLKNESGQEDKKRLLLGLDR
Description: Kinase activity assay, CDK5. The settings on record: 10 μM, 1% DMSO, 15 μM ATP; residual activity. In kind it is biochemical. The method, then:
as §1, §2
(§8) CDK1/cyclin B (M phase starfish oocytes, native), CDK2/cyclin A, CDK2/cyclin E, CDK5/p25 and CDK7/cyclin H (human, recombinant) were prepared as previously described (Leclerc et al., 2001, J. Biol. Chem. 2001, 276, 251-260; Bach et al., 2005, J Biol Chem 280: 31208-31219). Their kinase activity was assayed in buffer C, with 1 mg histone H1/ml, in the presence of 15 μM [gamma-^33P] ATP (3,000 Ci/mmol; 10 mCi/ml) in a final volume of 30 μl. After 30 min incubation at 30° C., 25 μl aliquots of supernatant were spotted onto 2.5×3 cm pieces of Whatman P81 phosphocellulose paper, and, 20 sec later, the filters were washed five times (for at least 5 min each time) in a solution of 10 ml phosphoric acid/liter of water. The wet filters were counted in the presence of 1 ml ACS (Amersham) scintillation fluid.

In another experiment the target is DYRK1A (Rattus norvegicus, UniProt Q63470). Briefly: Kinase activity assay, DYRK1A (GST fusion, myelin basic protein substrate). The experiment is classed as biochemical. Here is the method: as §1, §2
DYRK1A (rat, recombinant, expressed in E. coli as a GST fusion protein) was purified by affinity chromatography on glutathione-agarose and assayed as described for CDK1/cyclin B using myelin basic protein (1 mg/ml) as a substrate.

In the next experiment the target is T2, CDK2/cyclin A (Homo sapiens, UniProt P24941).
T2 construct: made in house
Description: Kinase activity assay, CDK2A. In kind it is biochemical. The note with it: 10 μM, 1% DMSO, 15 μM ATP; residual activity. The method, then:
as §1, §2, §8

The test system of experiment [2] is cancer cells versus normal fibroblasts. Description: Anti-proliferative, anti-migratory and anti-kinase effects, cancer cells versus normal fibroblasts. The experiment is classed as cell-based, human. The note with it: anti-proliferative. The source says: (§9) The compounds of the invention were subsequently evaluated for their 1) anti-proliferative effect (by means of the colorimetric MTT assay), 2) pro-autophagic and pro-apoptotic effect (by means of flow cytometry analyses), and 3) anti-migratory effect (by means of quantitative videomicroscopy), in the following human cancer cell-lines: a) U373, T98G and Hs683 glioblastoma cells, b) VM21 and VM48 melanoma cells, c) PC-3 prostate cancer cells, d) MCF-7 breast cancer cells, e) LoVo colon cancer cells, f) OE21 oesophageal cancer cells, and g) A549 NSCLC cancer cells, as well as in human WS1 and WI38 normal fibroblasts (i.e. non-cancer cells).
The best current hits, DLT12 and DLT4, display anti-proliferative, anti-migratory effects and anti-kinase effects which are ˜10 times more pronounced in cancer cells than in normal fibroblasts. […] FIG. 1 illustrates the data obtained with respect to the human U373 glioblastoma model, while FIG. 2 illustrates the data obtained in human normal fibroblasts. […] DLT-95 and its derivatives DLT-95-F and DLT-95-Cl were also shown to have a significant effect on the proliferation 7 different human cancer cell-lines.

A further experiment deals with WI38 normal fibroblasts. Briefly: Cellular imaging (quantitative videomicroscopy), global growth ratio, WI38. The experiment is classed as cell-based, human. The settings on record: 50 μM, 72 h.
From the text: as §3
(§10) Investigations have also been performed in human normal fibroblasts (WS1 and WI38—see Tables 4 and 5). Cellular imaging relied on the use of computer-assisted phase-contrast microscopy making possible to film the behaviour of living cells in culture dishes for several days. […]
(§11) The behaviour of the cells, in terms of morphology, growth and death were thus investigated. The effect on the overall growth was measured by counting the number of cells on the first (0 h) and the last image (72 h) of each film. […] The ratio GGRtreated cells/GGRcontrol cells, was further calculated thereby obtaining a value that describes the effect of compounds of the present invention on the overall cell growth. […]

In another experiment the test system is WS1 normal fibroblasts. Briefly: Cellular imaging (quantitative videomicroscopy), global growth ratio, WS1. The note with it: 50 μM, 72 h. The experiment is classed as cell-based, human.
From the text: as §3, §10, §11

The next experiment deals with cancer cell lines. Description: Flow cytometry analyses of pro-autophagic and pro-apoptotic effects. The experiment is classed as cell-based, human. The settings on record: cancer cell lines studied.
From the text: as §9
In general terms: Flow cytometry measures light scatter and fluorescence of single cells or particles in a stream.

pfGSK3, sequence (O77344 1-440): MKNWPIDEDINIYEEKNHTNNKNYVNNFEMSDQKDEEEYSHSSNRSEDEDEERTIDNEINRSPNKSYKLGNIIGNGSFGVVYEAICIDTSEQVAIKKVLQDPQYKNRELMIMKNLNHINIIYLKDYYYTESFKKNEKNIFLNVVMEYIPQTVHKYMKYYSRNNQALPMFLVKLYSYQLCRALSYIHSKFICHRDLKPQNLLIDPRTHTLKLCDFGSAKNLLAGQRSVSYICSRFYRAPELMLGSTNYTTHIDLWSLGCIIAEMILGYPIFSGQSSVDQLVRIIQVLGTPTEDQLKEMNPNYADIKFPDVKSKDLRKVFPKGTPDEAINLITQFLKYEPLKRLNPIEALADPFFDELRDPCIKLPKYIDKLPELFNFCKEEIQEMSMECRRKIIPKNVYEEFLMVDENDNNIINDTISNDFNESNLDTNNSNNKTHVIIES

As for `COc1cc(C(=O)OC2CCCC(OC(=O)c3ccc(O)c(OC)c3)C2)ccc1O` (mixture of isomers) [DLT5, cis/trans-cyclohexane-1,3-diyl bis-(4-hydroxy-3-methoxybenzoate)], the “% ENZYMATIC ACTIVITY, pfGSK3” value at pfGSK3 came out at 89%. For the same compound, the half-maximal inhibitory concentration (IC50) in the experiment with VM48 melanoma cells and with VM21 melanoma cells was 47 µM throughout. The activity at 50 µM in the experiment on U373-MG glioma cell line came out at 20%; in experiment [1], 10%. Moreover, the “% ENZYMATIC ACTIVITY, Erk2” value at Erk2 was 92%. In the experiment with GSK-3, the “% ENZYMATIC ACTIVITY, GSK3” value is reported as 81%. In addition, in the experiment with CK1, the “% ENZYMATIC ACTIVITY, Ckone” value stood at 73%. At CDK5/p25, the “% ENZYMATIC ACTIVITY, CDK5” value is listed as 95%. Moreover, the inhibition (usually the share of the control response that was lost under treatment) at 10 µM at DYRK1A stood at 26%. Besides, the “% ENZYMATIC ACTIVITY, Dyrk1A” value on DYRK1A (10 μM, 1% DMSO, 15 μM ATP, residual activity) is 74%. Also, the “% ENZYMATIC ACTIVITY, CDK2A” value at CDK2/cyclin A was 100%.

Turning to `COc1cc(C(=O)O[C@@H]2CCCC[C@H]2OC(=O)c2ccc(O)c(OC)c2)ccc1O` (racemic) [DLT4, trans-cyclohexane-1,2-diyl bis-(4-hydroxy-3-methoxybenzoate)], the “effects more pronounced in cancer cells than in normal fibroblasts” value in [2] is on record as approximately 10 times. The activity at 50 µM (with U373-MG glioma cell line; in experiment [1]) was 20% in each case. For the same compound, the “Global Grow Ratio Treated/Ct (GGR T/Ct) determined by Video Quantitative microscopy, WI38” value in the experiment with WI38 normal fibroblasts was 0.9. The “Global Grow Ratio Treated/Ct (GGR T/Ct) determined by Video Quantitative microscopy, WS1” value in the experiment with WS1 normal fibroblasts is reported as 1.0. Besides, the “pro-autophagic or pro-apoptotic effects” value in the experiment on cancer cell lines was “does not induce pro-autophagic or pro-apoptotic effects”.
